Results reported in patent US20160200734A1, “CARBOXYLIC ACID COMPOUNDS IN TREATMENT OF DIABETES MELLITUS” (FUJIAN HAIXI PHARMACEUTICALS CO., LTD., priority 2013, published 2016).

Molecular target: T1, GPR40 (Homo sapiens, UniProt O14842)
T1 construct: expressed in transfected cells
Experiment: GPR40 Activation Assay (Wash Free Fluo-8 Calcium Assay)
Assay type: cell-based
Details: HEK293 cells stably expressing GPR40; fluorescence intensity Ex=494 nm, Em=516 nm
Protocol: This test procedure substantially carried out in accordance with the HDB company's Wash Free Fluo-8 Calcium Assay Kits. HEK293 cells stably expressing GPR40 were selected in a media containing Neomycin/G418. The cells were plated at a concentration of 30 uL 15,000 cells per well in black 384-well clear bottom tissue culture treated plates. The cells were incubated for 24 h in a incubator with 5% CO2.
According to Wash Free Fluo-8 Calcium Assay Kits operating instruction, one component A was dissolved in 210 uL DMSO, one component B was dissolved in 2.4 mL component C. After a 200 mM probenecid solution was prepared, 40 μL component A, 400 μL component B, 200 μL 200 mM probenecid and […] component C were mixed to a 20 mL test solution.
After removal of medium from the black 384-well dear bottom tissue culture treated plates by centrifuge, the test solution was added at 30 uL/well and the plates were incubated for 60 mins at 37° C. All test compounds were diluted to appropriate concentrations in HBSS buffer. Compounds were added to the cells and the wells were read fluorescence intensity at Ex=494 nm, Em=516 nm and readings were taken for 2 mins with an interval of 1 s. The compounds dose-dependent curve and EC50 were obtained by the Graphpad Prism4 software.

T1 sequence (O14842 whole entry, species assumed): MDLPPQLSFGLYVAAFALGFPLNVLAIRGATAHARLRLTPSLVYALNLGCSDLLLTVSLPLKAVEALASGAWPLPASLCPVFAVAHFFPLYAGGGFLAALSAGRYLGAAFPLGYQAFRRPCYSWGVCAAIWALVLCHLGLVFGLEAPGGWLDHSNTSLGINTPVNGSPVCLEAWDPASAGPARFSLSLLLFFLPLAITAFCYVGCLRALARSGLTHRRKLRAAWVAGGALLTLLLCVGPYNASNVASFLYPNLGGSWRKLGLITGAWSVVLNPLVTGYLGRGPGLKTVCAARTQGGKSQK

Compound	EC50 [nM]
Cc1cc(OCCCS(C)(=O)=O)cc(C)c1-c1cccc2c1CCC2Oc1ccc2c(c1)SC[C@H]2CC(=O)O (stereo partly drawn) [Example 51, 2-((3S)-6-((4-(2,6-dimethyl-4-(3-(methylsulfonyl)propoxy)phenyl)-2,3-dihydro-1H-inden-1-yl)oxy)-2,3-dihydrobenzo[b]thiophen-3-yl)acetic acid]	878
CSCCCOc1cc(C)c(-c2cccc3c2CCC3Oc2ccc3c(c2)SC[C@H]3CC(=O)O)c(C)c1 (stereo partly drawn) [Example 52, 2-((3S)-6-((4-(2,6-dimethyl-4-(3-(metylthio)porpoxy)phenyl)-2,3-dihydro-1H-inden-1-yl)oxy)-2,3-dihydrobenzo[b]thiophen-3-yl)acetic acid]	1260
COCCCOc1cc(C)c(-c2cccc3c2CCC3Oc2ccc3c(c2)SC[C@H]3CC(=O)O)c(C)c1 (stereo partly drawn) [Example 53, 2-((3S)-6-((4-(4-(3-methoxypropoxy)-2,6-dlmethylphenyl)-2,3-dihydro-1H-inden-1-yl)oxy)-2,3-dihydrobenzo[b]thiophen-3-yl)acetic acid]	997
